Experimental data as given in US20250025454A1 (priority 2021, published 2025).
Where “and” joins values, the source holds several entries; their conditions need not be identical. Equal values may be shown once. Entries after “also recorded” stand apart in the source; their conditions may differ. Read-outs that look alike come from different tables or passages of the source.

How the values were obtained:
[1] = single oral dose, comparable for all doses, cited from earlier work
[2] = Pharmacokinetics (plasma, lung at 24 h) after single oral dosing in male Sprague-Dawley rats; conditions: for AUC∞ / t1/2 / Cmax / AUC(0-t) / AUC(0-inf) / Tmax: male SD rat plasma; for AUC(0-t): AUClast
[3] = single oral 250 mg/kg (Group 1), individual rats 450, 451, 452, listed as MDL-001, 250 mg/kg
[4] = male, Sprague-Dawley, rat, in vivo, po, 250 mg/kg, single oral 250 mg/kg (Group 1), mean
[5] = male, Sprague-Dawley, rat, in vivo, po, 500 mg/kg, single oral 500 mg/kg (Group 2), individual rats 453, 454, 455
[6] = male, Sprague-Dawley, rat, in vivo, po, 500 mg/kg, single oral 500 mg/kg (Group 2), mean
[7] = male, Sprague-Dawley, rat, in vivo, po, 750 mg/kg, single oral 750 mg/kg (Group 3), individual rats 456, 457, 458
[8] = male, Sprague-Dawley, rat, in vivo, po, 750 mg/kg, single oral 750 mg/kg (Group 3), mean
[9] = male, Sprague-Dawley, rat, in vivo, po, 1000 mg/kg, single oral 1000 mg/kg (Group 4), one outlier excluded, mean

Cc1c(-c2ccc(O)cc2)n(Cc2ccc(OCCN3CCCCC3)cc2)c2ccc(O)cc12 [Pipendoxifene, 2-(4-hydroxyphenyl)-3-methyl-1-[[4-(2-piperidin-1-ylethoxy)phenyl]methyl]indol-5-ol]
t1/2 [1]: 30 ± 16 h
t1/2 ([1]; listed as pipendoxifene): 30 h
Lung C24 h over SARS-CoV-2 IC50 ([2]; 250 mg/kg): 9.7 fold
Lung C24 h over SARS-CoV-2 IC50 ([2]; 500 mg/kg): 13.7 fold
Lung C24 h over SARS-CoV-2 IC50 ([2]; 1000 mg/kg): 40.9 fold
Lung C24 h over SARS-CoV-2 IC50 ([2]; 6750 mg/kg (so in the source)): 13.3 fold
Lung C24 h over SARS-CoV-2 IC50 ([2]; 'higher dose', sentence in the rat section): 5.4 fold
AUC∞ [2, 3]: 4132 ng·h/mL and 5119 ng·h/mL and 2549 ng·h/mL
t1/2 [2, 3]: 3.83 h and 8.95 h and 5.42 h
t1/2 ([2]; single oral 250 mg/kg (Group 1), mean, listed as MDL-001, 250 mg/kg): 6.06 h
Cmax ([2]; single oral 1000 mg/kg (Group 4), one outlier excluded, individual rats 459, 460, 461, listed as MDL-001, 1000 mg/kg): 501 ng/mL
AUC∞ ([2]; single oral 1000 mg/kg (Group 4), one outlier excluded, individual rats 459, 460, listed as MDL-001, 1000 mg/kg): 7888 ng·h/mL
adverse reactions / tolerability ([2]; male SD rat, single PO dose 250-1000 mg/kg, listed as MDL-001): well tolerated with no adverse clinical signs; also recorded: No adverse reactions were observed
Kp at 24 h ([2]; male, Sprague-Dawley, rat, in vivo, Lung/Plasma C24 h ratios, range, Day 1, across the dose range): 97 to 122
AUC(0-t) ([2]; male, Sprague-Dawley, rat, in vivo, po, 250 mg/kg, single oral 250 mg/kg (Group 1), individual rats 450, 451, 452): 4040 ng·h/mL
AUC(0-t) [2, 4]: 3520 ± 980 ng·h/mL
AUC(0-inf) [2, 4]: 3930 ng·h/mL
Cmax ([2]; male, Sprague-Dawley, rat, in vivo, po, 250 mg/kg, Cmax, single oral 250 mg/kg (Group 1), individual rats 450, 451, 452): 334 ng/mL
Cmax ([2]; male, Sprague-Dawley, rat, in vivo, po, 250 mg/kg, Cmax, single oral 250 mg/kg (Group 1), mean): 311 ± 42 ng/mL
half-life ([2]; male, Sprague-Dawley, rat, in vivo, po, 250 mg/kg, t1/2, male SD rat plasma, single oral 250 mg/kg (Group 1), mean): 6.06 ± 2.62 h
Tmax [2, 4]: 5.33 ± 1.15 h
AUC(0-t) [2, 5]: 5730 ng·h/mL
AUC(0-inf) [2, 5]: 6410 ng·h/mL
AUC(0-inf) [2, 6]: 5850 ng·h/mL
half-life ([2]; male, Sprague-Dawley, rat, in vivo, po, 500 mg/kg, t1/2, male SD rat plasma, single oral 500 mg/kg (Group 2), individual rats 453, 454, 455): 6.08 h
half-life ([2]; male, Sprague-Dawley, rat, in vivo, po, 500 mg/kg, t1/2, male SD rat plasma, single oral 500 mg/kg (Group 2), mean): 5.2 ± 1.34 h
Tmax [2, 5]: 8 h
Tmax [2, 6]: 6.67 ± 1.15 h
AUC(0-t) [2, 7]: 7530 ng·h/mL
AUC(0-inf) [2, 7]: 7920 ng·h/mL
AUC(0-inf) [2, 8]: 5520 ng·h/mL
Cmax ([2]; male, Sprague-Dawley, rat, in vivo, po, 750 mg/kg, Cmax, single oral 750 mg/kg (Group 3), mean): 415 ± 72 ng/mL
half-life ([2]; male, Sprague-Dawley, rat, in vivo, po, 750 mg/kg, t1/2, male SD rat plasma, single oral 750 mg/kg (Group 3), individual rats 456, 457, 458): 4.77 h
Tmax [2, 7]: 8 h
Tmax [2, 8]: 6.67 ± 1.15 h
concentration at 24 h ([2]; male, Sprague-Dawley, rat, in vivo, po, 1000 mg/kg): 13400 ng/g
AUC(0-t) ([2]; male, Sprague-Dawley, rat, in vivo, po, 1000 mg/kg, single oral 1000 mg/kg (Group 4), all data included, mean): 6760 ± 930 ng·h/mL
AUC(0-t) ([2]; male, Sprague-Dawley, rat, in vivo, po, 1000 mg/kg, single oral 1000 mg/kg (Group 4), one outlier excluded, individual rats 459, 460, 461): 3980 ng·h/mL
AUC(0-t) [2, 9]: 5710 ± 1730 ng·h/mL
AUC(0-inf) [2, 9]: 6880 ng·h/mL
half-life ([2]; male, Sprague-Dawley, rat, in vivo, po, 1000 mg/kg, t1/2, male SD rat plasma, single oral 1000 mg/kg (Group 4), all data included, individual rats 459, 460, 461): 4.3 h
half-life ([2]; male, Sprague-Dawley, rat, in vivo, po, 1000 mg/kg, t1/2, male SD rat plasma, single oral 1000 mg/kg (Group 4), all data included, mean): 4.88 ± 0.5 h
half-life ([2]; male, Sprague-Dawley, rat, in vivo, po, 1000 mg/kg, t1/2, male SD rat plasma, single oral 1000 mg/kg (Group 4), one outlier excluded, individual rats 459, 460): 4.3 h
half-life ([2]; male, Sprague-Dawley, rat, in vivo, po, 1000 mg/kg, t1/2, male SD rat plasma, single oral 1000 mg/kg (Group 4), one outlier excluded, mean): 4.73 h
half-life ([2]; male, Sprague-Dawley, rat, in vivo, po, plasma t1/2, range, 250-1000 mg/kg single oral dose): 4.71 to 6.06 h
concentration at 2 h ([2]; male, Sprague-Dawley, rat, plasma, po, 500 mg/kg, Plasma concentration, male SD rat, single oral 500 mg/kg (Group 2), 2 hr, individual rats 453, 454, 455): 136 ng/mL
concentration at 6 h ([2]; male, Sprague-Dawley, rat, plasma, po, 500 mg/kg, Plasma concentration, male SD rat, single oral 500 mg/kg (Group 2), 6 hr, individual rats 453, 454, 455): 428 ng/mL
concentration at 8 h ([2]; male, Sprague-Dawley, rat, plasma, po, 500 mg/kg, Plasma concentration, male SD rat, single oral 500 mg/kg (Group 2), individual rats 453, 454, 455): 561 ng/mL
concentration at 6 h ([2]; male, Sprague-Dawley, rat, plasma, po, 750 mg/kg, Plasma concentration, male SD rat, single oral 750 mg/kg (Group 3), 6 hr, individual rats 456, 457, 458): 381 ng/mL
concentration at 8 h ([2]; male, Sprague-Dawley, rat, plasma, po, 750 mg/kg, Plasma concentration, male SD rat, single oral 750 mg/kg (Group 3), individual rats 456, 457, 458): 497 ng/mL
AUC(0-t) ([2]; male, Sprague-Dawley, rat, plasma, po, 1000 mg/kg, single oral 1000 mg/kg (Group 4), one outlier excluded, individual rats 459, 460, 461): 7440 ng·h/mL
AUC(0-inf) ([2]; male, Sprague-Dawley, rat, plasma, po, 1000 mg/kg, single oral 1000 mg/kg (Group 4), one outlier excluded, individual rats 459, 460): 5880 ng·h/mL
Cmax ([2]; male, Sprague-Dawley, rat, plasma, po, 1000 mg/kg, Cmax, single oral 1000 mg/kg (Group 4), one outlier excluded, individual rats 459, 460, 461): 365 ng/mL
concentration at 6 h ([2]; male, Sprague-Dawley, rat, plasma, po, 1000 mg/kg, Plasma concentration, male SD rat, single oral 1000 mg/kg (Group 4), all data included, 6 hr, individual rats 459, 460, 461): 365 ng/mL
concentration at 4 hr ([2]; male, Sprague-Dawley, rat, plasma, po, 1000 mg/kg, Plasma concentration, male SD rat, single oral 1000 mg/kg (Group 4), one outlier excluded, 4 hr, mean): 381 ng/mL
concentration at 6 hr ([2]; male, Sprague-Dawley, rat, plasma, po, 1000 mg/kg, Plasma concentration, male SD rat, single oral 1000 mg/kg (Group 4), one outlier excluded, 6 hr, individual rats 459, 460, 461): 365 ng/mL
